Reference: patent US20110217300A1, “Quinazolinone Compounds and Methods of Use Thereof” (priority 2007, published 2011)
Like-named read-outs stand apart in the source and are kept apart here.

Experiments:
NCI-H460 = experiment: MTS cell viability assay; type: cell-based, human
Summary of the method: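 Growth inhibition is assessed by MTS conversion in human cancer cells cultured in DMEM with 10% FBS. Compound exposure lasts 72 h at 0.33% final DMSO, and GI50 is derived from […] readings.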

AN3CA = experiment: MTS cell viability assay; type: cell-based; settings: Homo sapiens, AN3-CA, endometrial
Method: (§1) Cell viability was determined by measuring the activity of dehydrogenase enzymes in metabolically active cells using a tetrazolium compound, MTS. The assay was performed as described in Promega Technical Bulletin No. 169 (CellTiter 96 Aqueous Non-Radioactive Cell Proliferation Assay). Two human cancer cell lines were assayed (see, Table 1). Cells were maintained at 37° C. and 5% CO2 in DMEM media (4.5 g/L glucose) supplemented with 10% heat-inactivated FBS, 10 mM L-glutamine, and 10 mM Hepes pH 7.5. Briefly, cells were seeded in 96-well plates as set forth in Table 1 and incubated for 16-24 hours. Candidate compounds were serially diluted in DMSO, further diluted in cell culture media, and then added to cells (final DMSO concentration of 0.33%). Cells were incubated in the presence of candidate compound for 72 hours. MTS stock solution (MTS 2 gm/L, PMS […] in PBS) was added to the cells (final concentration MTS […] and PMS 7.67 mg/L) and incubated for 4 hours. SDS was added to a final concentration of 1.4% and absorbance at 490 nm was measured within two hours using a plate reader. […] GI50 values were given in Table 2 for the compounds listed. The Compound Numbers in Table 2 correspond to the numbers listed parenthetically in the Example titles. Where multiple measurements were made by different technicians, both values are given.
(§2) Cell viability was determined for N-(3-amino-propyl)-3-chloro-N—[(R)-1-(7-chloro-4-oxo-3-phenylamino-3,4-dihydro-quinazolin-2-yl)-but-3-ynyl]-2-fluoro-benzamide (compound I of Table 2). The cell viability assay of Example 105 was used. GI50 was determined using a variety of cell lines. Cells were plated at 100-5000 cells per well. At least 2 replicates were performed. Where multiple measurements were made by different technicians, both values are given.

CAKI-1 = experiment: MTS cell viability assay; type: cell-based; settings: Homo sapiens, kidney
Method: as §1, §2

DU145 = experiment: MTS cell viability assay; type: cell-based; settings: prostate
Method: as §1, §2

HEP-G2 = experiment: MTS cell viability assay; type: cell-based; settings: Homo sapiens, HepG2, Hepatocellular carcinoma
Method: as §1, §2

HT-1080 = experiment: MTS cell viability assay; type: cell-based; settings: Homo sapiens, Fibrosarcoma
Method: as §1, §2

K562 = experiment: MTS cell viability assay; type: cell-based; settings: CML
Method: as §1, §2

NCI-H1299 = experiment: MTS cell viability assay; type: cell-based; settings: Homo sapiens, Non-small cell lung carcinoma
Method: as §1, §2

NCI-H1993 = experiment: MTS cell viability assay; type: cell-based; settings: Lung adenocarcinoma
Method: as §1, §2

NCI-H520 = experiment: MTS cell viability assay; type: cell-based; settings: Homo sapiens, Squamous cell lung carcinoma
Method: as §1, §2

NCI-H526 = experiment: MTS cell viability assay; type: cell-based; settings: Homo sapiens, Lung carcinoma, variant small cell lung cancer
Method: as §1, §2

NTERA-2 c1. D1 = experiment: MTS cell viability assay; type: cell-based; settings: NTERA2, Testis pluripotent embryonal carcinoma
Method: as §1, §2

RT-112 = experiment: MTS cell viability assay; type: cell-based; settings: Human urinary bladder cell carcinoma
Method: as §1, §2

RT-4 = experiment: MTS cell viability assay; type: cell-based; settings: Human urinary bladder cell carcinoma
Method: as §1, §2

SK-MEL-28 = experiment: MTS cell viability assay; type: cell-based; settings: Malignant melanoma
Method: as §1, §2

SNU-1 = experiment: MTS cell viability assay; type: cell-based; settings: Homo sapiens, SNU1, Stomach
Method: as §1, §2

SNU475 = experiment: MTS cell viability assay; type: cell-based; settings: Homo sapiens, SNU-475, liver
Method: as §1, §2

SW620 = experiment: MTS cell viability assay; type: cell-based; settings: Homo sapiens, SW-620, Colorectal adenocarcinoma
Method: as §1, §2

WIDR = experiment: MTS cell viability assay; type: cell-based; settings: Homo sapiens, Colorectal adenocarcinoma
Method: as §1, §2

WM-266.4 = experiment: MTS cell viability assay; type: cell-based; settings: Homo sapiens, WM 266-4, Melanoma
Method: as §1, §2

[1] = test system: MDA-MB-231 tumor xenografts; experiment: MDA-MB-231 tumor xenograft efficacy study; type: in vivo, mice
Method: Six weeks old female athymic nude mice (NCR nu/nu) received from Charles River Laboratory, acclimated to the animal housing facility for one week before initiation of the study. Mice were housed in sterile cages of 4 each with autoclaved bedding, provided with autoclaved food and water ad libitum. Efficacy studies were performed in athymic mice bearing MDA-MB-231 tumor xenografts to determine the effect of compound on tumor growth. Tumor cells (5×10^6 MDA-MB-231 cells/animal) were inoculated subcutaneously on day 0. Tumor dimensions were measured three times weekly by a digital microcaliper, and tumor volumes were calculated as length×width^2/2. When tumors reached a volume of ˜100 mm^3, mice were randomized into groups and treated 3× weekly (Monday-Wednesday-Friday, followed by a 2-day dosing holiday) intraperitoneally. With either vehicle control or 3 mg/kg, 6 mg/kg and 12 mg/kg compound formulated in DMA/PEG400/water (4:8:88). Results are expressed as mean tumor volume±SE. To assess differences in tumor size between groups, student's t test was performed and significance was assessed for p values <0.05. Tumor size was evaluated periodically during treatment at the indicated days post-inoculation. Results are represented as the mean of tumor volume in mm^3±SE of several tumors (n=8) in function of the treatment period.
The in vivo activity of N-(3-amino-propyl)-3-chloro-N—[(R)-1-(7-chloro-4-oxo-3-phenylamino-3,4-dihydro-quinazolin-2-yl)-but-3-ynyl]-2-fluoro-benzamide was tested using xenograft models using cell lines as reported in Table 4. The experiments were performed using the general procedures and dosages of Examples 106-108.

SMILES: C#CC[C@H](c1nc2cc(Cl)ccc2c(=O)n1Nc1ccccc1)N(CCCN)C(=O)c1cccc(Cl)c1F [Compound 1, N-(3-Amino-propyl)-3-chloro-N—[(R)-1-(7-chloro-4-oxo-3-phenylamino-3,4-dihydro-quinazolin-2-yl)-but-3-ynyl]-2-fluoro-benzamide]
- GI50 (NCI-H460; Homo sapiens, NCI-H460, 72 h, read-out: MTS NCI H460 GI50, NCI-H460 non small cell lung, 72 hours): 360 nM
- GI50 (NCI-H460; Homo sapiens, NCI-H460, read-out: Average GI50, NCI-H460, Large cell lung carcinoma (Table 3)): 1100 nM
- GI50 (NCI-H460; read-out: Average GI50, NCI-H460, Large cell lung carcinoma (Table 3), listed as I): 1050 nM
- GI50 (AN3CA): 201 nM
- GI50 (CAKI-1): 2170 nM
- GI50 (DU145; DU145, listed as I): 304 nM
- GI50 (DU145; Homo sapiens, DU-145, DU145): 303 nM
- GI50 (HEP-G2): 3840 nM
- GI50 (HT-1080): 149 nM
- GI50 (K562; Homo sapiens, K562, K562): 133 nM
- GI50 (K562; K562, listed as I): 184 nM
- GI50 (NCI-H1299): 549 nM
- GI50 (NCI-H1993; Homo sapiens, NCI-H1993, NCI-H1993): 2420 nM
- GI50 (NCI-H1993; NCI-H1993, listed as I): 1660 nM
- GI50 (NCI-H520): 139 nM
- GI50 (NCI-H526): 125 nM
- GI50 (NTERA-2 c1. D1): 63 nM
- GI50 (RT-112): 53 nM
- GI50 (RT-4): 368 nM
- GI50 (SK-MEL-28; Homo sapiens, SK-MEL-28, SK-MEL-28): 2160 nM
- GI50 (SK-MEL-28; SK-MEL-28, listed as I): 3130 nM
- GI50 (SNU-1): 552 nM
- GI50 (SNU475): 2350 nM
- GI50 (SW620): 317 nM
- GI50 (WIDR): 783 nM
- GI50 (WM-266.4): 2300 nM
- tolerability of doses ([1]; 3 mg/kg, 6 mg/kg or 12 mg/kg intraperitoneally 3x weekly, MDA-MB-231 xenograft mice): well-tolerated
- tumor growth compared to the vehicle control group ([1]; 3 mg/kg, 6 mg/kg or 12 mg/kg intraperitoneally 3x weekly, tumors ~100 mm^3 at start, FIG. 2): Significant reductions in tumor growth
- Xenograft Outcome (approximate percent growth inhibition) ([1]; MDA-MB-231, Breast, procedures and dosages of Examples 106-108): ~80%
